Test results reported in ChEMBL document CHEMBL1158105, “Triterpene saponins from clematis mandshurica” (J Nat Prod, 2006).

Target: T1, Prostaglandin G/H synthase 2 (Mus musculus, UniProt Q05769)
T1 sequence (Q05769 whole entry): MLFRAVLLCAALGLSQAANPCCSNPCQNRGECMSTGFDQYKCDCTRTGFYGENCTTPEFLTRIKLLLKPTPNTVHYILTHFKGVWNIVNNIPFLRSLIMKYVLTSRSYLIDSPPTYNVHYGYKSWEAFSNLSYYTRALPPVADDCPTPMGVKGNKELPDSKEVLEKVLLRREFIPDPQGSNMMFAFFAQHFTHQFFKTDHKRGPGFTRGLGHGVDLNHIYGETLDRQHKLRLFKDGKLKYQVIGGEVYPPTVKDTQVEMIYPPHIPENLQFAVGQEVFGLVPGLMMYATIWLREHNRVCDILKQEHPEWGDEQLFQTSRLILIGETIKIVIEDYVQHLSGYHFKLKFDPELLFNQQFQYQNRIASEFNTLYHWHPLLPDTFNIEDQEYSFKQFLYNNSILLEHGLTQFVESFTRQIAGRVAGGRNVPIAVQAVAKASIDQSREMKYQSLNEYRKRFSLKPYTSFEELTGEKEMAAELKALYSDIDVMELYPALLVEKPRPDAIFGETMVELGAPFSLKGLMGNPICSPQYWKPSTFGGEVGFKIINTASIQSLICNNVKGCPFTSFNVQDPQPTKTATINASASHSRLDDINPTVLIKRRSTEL
Assay: Inhibition of LPS-induced COX2 activity in C57BL/6J mouse peritoneal macrophages by RIA

For COc1ccc(/C=C/C(=O)O[C@@H]2[C@@H](O)[C@H](O[C@@H]3[C@@H](O)[C@H](O[C@@H]4CO[C@@H](O[C@@H]5[C@@H](O)[C@H](C)O[C@@H](O[C@H]6[C@H](O[C@H]7CC[C@]8(C)[C@H]9CC=C%10[C@@H]%11CC(C)(C)CC[C@]%11(C(=O)O[C@@H]%11O[C@H](CO[C@@H]%12O[C@H](CO)[C@@H](O[C@@H]%13O[C@@H](C)[C@H](O)[C@@H](O)[C@H]%13O)[C@H](O)[C@H]%12O)[C@@H](O)[C@H](O)[C@H]%11O)CC[C@@]%10(C)[C@]9(C)CC[C@H]8C7(C)C)OC[C@H](O)[C@@H]6O)[C@@H]5O)[C@H](O)[C@@H]4O)O[C@H](CO)[C@H]3O)O[C@H](CO[C@@H]3O[C@@H](C)[C@H](O)[C@@H](O)[C@H]3O)[C@H]2O)cc1O [CLEMATOMANDSHURICA SAPONIN A], which IC50 is on record?
The IC50 was 2660 nM.

How did the IC50 turn out when COc1cc(/C=C/C(=O)O[C@H]2[C@H](O[C@@H]3[C@@H](O)[C@H](O[C@@H]4CO[C@@H](O[C@@H]5[C@@H](O)[C@H](C)O[C@@H](O[C@H]6[C@H](O[C@H]7CC[C@]8(C)[C@H]9CC=C%10[C@@H]%11CC(C)(C)CC[C@]%11(C(=O)O[C@@H]%11O[C@H](CO[C@@H]%12O[C@H](CO)[C@@H](O[C@@H]%13O[C@@H](C)[C@H](O)[C@@H](O)[C@H]%13O)[C@H](O)[C@H]%12O)[C@@H](O)[C@H](O)[C@H]%11O)CC[C@@]%10(C)[C@]9(C)CC[C@H]8C7(C)C)OC[C@H](O)[C@@H]6O)[C@@H]5O)[C@H](O)[C@@H]4O)O[C@H](CO)[C@H]3O)O[C@H](CO[C@@H]3O[C@@H](C)[C@H](O)[C@@H](O)[C@H]3O)[C@@H](O)[C@@H]2O)ccc1O [CLEMATOMANDSHURICA SAPONIN B] was run?
The IC50 was 2580 nM.
